The source of these data is ChEMBL document CHEMBL4400520, “Benzofuran-isatin-imine hybrids tethered via different length alkyl linkers: Design, synthesis and in vitro evaluation of anti-tubercular and anti-bacterial activities as well as cytotoxicity” (Eur J Med Chem, 2019).

The structures appear in SMILES notation. Converted amounts (≈) assume the structure as drawn.

The nature of series [1]: Cytotoxicity against African green monkey Vero cells assessed as reduction in cell viability after 72 hrs by MTT assay. Type of series: cell-based. Conditions: chlorocebus sabaeus, Vero cells.
Series [2] has as its system Escherichia coli. The experiment in a line: Antibacterial activity against Escherichia coli. Type of series: functional.
In series [3] the test system is Enterobacter cloacae. The experiment in a line: Antibacterial activity against Enterobacter cloacae. Type of series: functional.
The test system of series [4] is Citrobacter freundii. Briefly: Antibacterial activity against Citrobacter freundii. Type of series: functional.
For series [5], the system named is Proteus mirabilis. The experiment in a line: Antibacterial activity against Proteus mirabilis. Type of series: functional.
Series [6] concerns Staphylococcus aureus. The experiment in a line: Antibacterial activity against methicillin-resistant Staphylococcus aureus. Type of series: functional.
Series [7] has as its system Klebsiella aerogenes. The experiment in a line: Antibacterial activity against Enterobacter aerogenes. Type of series: functional.
Series [8] is described as follows: Selectivity index, ratio of CC50 for African green monkey Vero cells to MIC for Mycobacterium tuberculosis H37Rv. Type of series: toxicity. The conditions noted are these: read-out: Selectivity Index.
Series [9] concerns Staphylococcus aureus. The experiment in a line: Antibacterial activity against methicillin-sensitive Staphylococcus aureus. Type of series: functional.
Series [10] has as its system Mycobacterium tuberculosis. Briefly: Antitubercular activity against Mycobacterium tuberculosis H37Rv. Type of series: functional.
The test system of series [11] is Klebsiella pneumoniae. Briefly: Antibacterial activity against Klebsiella pneumoniae. Type of series: functional.
Series [12] deals with Pseudomonas aeruginosa. Briefly: Antibacterial activity against Pseudomonas aeruginosa ATCC 27853. Type of series: functional.
The test system of series [13] is Acinetobacter calcoaceticus. Briefly: Antibacterial activity against Acinetobacter calcoaceticus. Type of series: functional.
In series [14] the test system is Staphylococcus epidermidis. Briefly: Antibacterial activity against methicillin-sensitive Staphylococcus epidermidis. Type of series: functional.
Series [15] has as its system Enterococcus faecium. Briefly: Antibacterial activity against Enterococcus faecium. Type of series: functional.
In series [16] the test system is Enterococcus faecalis. Briefly: Antibacterial activity against Enterococcus faecalis. Type of series: functional.
In series [17] the test system is Staphylococcus epidermidis. Briefly: Antibacterial activity against methicillin-resistant Staphylococcus epidermidis. Type of series: functional.

Regarding `CCOC(=O)c1c(-c2ccc(OC)cc2)oc2ccc(OCCCCCCN3C(=O)/C(=N\OC)c4ccccc43)cc12`, the half-maximal cytotoxic concentration (CC50) at 72 h in [1] is 32 µg/mL (≈ 56.1 µM). For the same compound, the MIC90 in [2] was found to be 0.125 µg/mL (≈ 0.219 µM); in [3], 0.125 µg/mL (≈ 0.219 µM); in series [4] it was 0.125 µg/mL (≈ 0.219 µM); in [5] it was 0.125 µg/mL (≈ 0.219 µM); in [6] it was 2 µg/mL (≈ 3.5 µM); in [7] it was 0.25 µg/mL (≈ 0.438 µM). Further, the MIC90 is 2 µg/mL (≈ 3.5 µM) in series [9]; 4 µg/mL (≈ 7.01 µM) in series [11]; 2 µg/mL (≈ 3.5 µM) in series [12]; 4 µg/mL (≈ 7.01 µM) in [13]; 0.5 µg/mL (≈ 0.876 µM) in series [14]; 16 µg/mL (≈ 28 µM) in [15]. Moreover, the MIC90 in [16] came to 4 µg/mL (≈ 7.01 µM); in [17], 8 µg/mL (≈ 14 µM). Moreover, the selectivity ratio in [8] was above 2000. The compound further came in with a minimum inhibitory concentration (MIC) in [10] below 0.016 µg/mL.
As for `CCOC(=O)c1c(-c2ccc(OC)cc2)oc2ccc(OCCCN3C(=O)/C(=N\OC)c4ccccc43)cc12`, the CC50 at 72 h in [1] turned out to be 128 µg/mL (≈ 242 µM). Also, the MIC90 worked out at 0.25 µg/mL (≈ 0.473 µM) in series [2]; 0.5 µg/mL (≈ 0.946 µM) in [3]; 1 µg/mL (≈ 1.89 µM) in series [4]; 0.5 µg/mL (≈ 0.946 µM) in [5]; 4 µg/mL (≈ 7.57 µM) in series [6]; 1 µg/mL (≈ 1.89 µM) in series [7]. The MIC90 in series [9] is 4 µg/mL (≈ 7.57 µM); in series [11], 1 µg/mL (≈ 1.89 µM); in series [12], 2 µg/mL (≈ 3.78 µM); in series [13], 1 µg/mL (≈ 1.89 µM); in series [14] it was 0.5 µg/mL (≈ 0.946 µM); in series [15] it was 32 µg/mL (≈ 60.5 µM). Further, the figures for the MIC90 in [16] and in series [17] were 4 µg/mL (≈ 7.57 µM) and 1 µg/mL (≈ 1.89 µM), respectively. Also, the selectivity ratio in series [8] is above 1000. In addition, the minimum inhibitory concentration (MIC) in series [10] was below 0.016 µg/mL.
For the compound `NNC(=O)c1ccncc1` [ISONIAZID], in series [1], the CC50 at 72 h was found to be 256 µg/mL (≈ 1870 µM). The selectivity ratio in [8] is 3280. The MIC in series [10] came to 0.078 µg/mL (≈ 0.569 µM).
Take `CCO/N=C1\C(=O)N(CCCCCOc2ccc3oc(-c4ccc(OC)cc4)c(C(=O)OCC)c3c2)c2ccc(F)cc21`: the cytotoxic concentration (CC50) at 72 h in series [1] turned out to be 32 µg/mL (≈ 54.4 µM). In addition, the MIC90 came out at 0.125 µg/mL (≈ 0.212 µM) in series [2]; 0.25 µg/mL (≈ 0.425 µM) in [3]; 0.125 µg/mL (≈ 0.212 µM) in series [4]; 0.25 µg/mL (≈ 0.425 µM) in [5]; 4 µg/mL (≈ 6.8 µM) in series [6]; 0.5 µg/mL (≈ 0.849 µM) in series [7]. For the same compound, the MIC90 in series [9] was 8 µg/mL (≈ 13.6 µM); in series [11], 4 µg/mL (≈ 6.8 µM); in series [12] it was 4 µg/mL (≈ 6.8 µM); in series [13], 8 µg/mL (≈ 13.6 µM); in series [14], 1 µg/mL (≈ 1.7 µM); in series [15], 32 µg/mL (≈ 54.4 µM). Besides, the MIC90 in series [16] and in [17] was 4 µg/mL (≈ 6.8 µM) in each case. Besides, the selectivity ratio in [8] is 1030. In series [10], this compound displayed an MIC of 0.031 µg/mL (≈ 0.0527 µM).
On to `CCO/N=C1\C(=O)N(CCCCOc2ccc3oc(-c4ccc(OC)cc4)c(C(=O)OCC)c3c2)c2ccccc21`, for which, in series [1], the cytotoxic concentration (CC50) at 72 h turned out to be 64 µg/mL (≈ 115 µM). In addition, the MIC90 in series [2] was found to be 1 µg/mL (≈ 1.8 µM); in series [3], 1 µg/mL (≈ 1.8 µM); in series [4] it was 2 µg/mL (≈ 3.59 µM); in series [5], 2 µg/mL (≈ 3.59 µM); in series [6], 1 µg/mL (≈ 1.8 µM); in series [7], 2 µg/mL (≈ 3.59 µM). Also, the MIC90 was 1 µg/mL (≈ 1.8 µM) in series [9]; 2 µg/mL (≈ 3.59 µM) in series [11]; 2 µg/mL (≈ 3.59 µM) in series [12]; 0.5 µg/mL (≈ 0.898 µM) in [13]; 0.5 µg/mL (≈ 0.898 µM) in [14]; 64 µg/mL (≈ 115 µM) in series [15]. The MIC90 in series [16] came out at 4 µg/mL (≈ 7.19 µM); in [17], 2 µg/mL (≈ 3.59 µM). For the same compound, in series [8], the selectivity ratio was above 4000. In series [10], this compound came in with a minimal inhibitory concentration (MIC) below 0.016 µg/mL.
Take `CCOC(=O)c1c(-c2ccc(OC)cc2)oc2ccc(OCCCCCCN3C(=O)/C(=N\NC(N)=S)c4ccccc43)cc12`: the CC50 at 72 h in series [1] stood at 8 µg/mL (≈ 13 µM). Moreover, the MIC90 in series [2] came out at 1 µg/mL (≈ 1.63 µM); in series [3], 1 µg/mL (≈ 1.63 µM); in series [4], 2 µg/mL (≈ 3.25 µM); in series [5], 1 µg/mL (≈ 1.63 µM); in series [6] it was 0.5 µg/mL (≈ 0.813 µM); in [7], 2 µg/mL (≈ 3.25 µM). Also, the MIC90 was 1 µg/mL (≈ 1.63 µM) in series [9]; 8 µg/mL (≈ 13 µM) in [11]; 4 µg/mL (≈ 6.51 µM) in series [12]; 4 µg/mL (≈ 6.51 µM) in series [13]; 1 µg/mL (≈ 1.63 µM) in series [14]; 64 µg/mL (≈ 104 µM) in series [15]. The MIC90 was found to be 1 µg/mL (≈ 1.63 µM) in series [16] and 4 µg/mL (≈ 6.51 µM) in [17]. Also, the selectivity ratio in series [8] was above 500. Moreover, the MIC in series [10] is below 0.016 µg/mL.
As to `CCOC(=O)c1c(-c2ccc(OC)cc2)oc2ccc(OCCCCCCN3C(=O)C(=O)c4ccccc43)cc12`, the half-maximal cytotoxic concentration (CC50) at 72 h in [1] is 256 µg/mL (≈ 473 µM). The MIC90 came out at 0.06 µg/mL (≈ 0.111 µM) in [2]; 0.125 µg/mL (≈ 0.231 µM) in [3]; 0.25 µg/mL (≈ 0.462 µM) in series [4]; 0.125 µg/mL (≈ 0.231 µM) in series [5]; 1 µg/mL (≈ 1.85 µM) in [6]; 0.5 µg/mL (≈ 0.923 µM) in [7]. Moreover, the MIC90 in series [9] is 1 µg/mL (≈ 1.85 µM); in series [11], 0.5 µg/mL (≈ 0.923 µM); in series [12] it was 4 µg/mL (≈ 7.39 µM); in series [13], 2 µg/mL (≈ 3.69 µM); in series [14] it was 0.25 µg/mL (≈ 0.462 µM); in series [15], 8 µg/mL (≈ 14.8 µM). The MIC90 was found to be 2 µg/mL (≈ 3.69 µM) in series [16] and 4 µg/mL (≈ 7.39 µM) in [17]. Further, the selectivity ratio in series [8] worked out at 4130. In series [10], this compound gave an MIC of 0.062 µg/mL (≈ 0.114 µM).

Usually CC50 stands for the concentration that lowers cell viability or growth by half. The MIC90 is an inhibitory concentration at the 90% level, which refers to growth in some studies and to a panel of isolates in others. As usually defined, the MIC is the lowest concentration found to suppress growth.
